From paper PMC10653858 (mBio, 2023)

Columns and labels:
[1] = tested on: LegAS4 enzymes; assay type: binding, L. pneumophila strain Philadelphia
[2] = tested on: SET domain; assay type: binding, L. pneumophila; conditions: pH 8
[3] = tested on: LegAS4; assay type: binding, L. pneumophila strain Philadelphia; conditions: pH 7.5

Molecule | SAM binding of the different proteins, in words [1] | SAM binding of the SET domain alone, in words [2] | Peptide binding to wild-type LegAS4, in words [3]
C[S+](CC[C@H](N)C(=O)[O-])C[C@H]1O[C@@H](n2cnc3c(N)ncnc32)[C@H](O)[C@@H]1O (stereo partly drawn) [SAM] | same binding capacity to SAM | greatly decreased SAM binding | –
ARTKQT-K(Biotin)-NH2 [H3 peptide (Ala1-Ala7)] | – | – | not binding the enzyme
